Results: patent US9815787B2, “Sulfonamide derivative or pharmaceutically acceptable acid addition salt thereof” (UNIVERSITY OF TSUKUBA, priority 2013, dated 2017)
pEC50: −log10 of the molar value.

Target: T1, OX2R (Homo sapiens, UniProt O43614)
T1 construct: expressed in transfected cells; host or cells: CHO (Chinese hamster ovary) cells constitutively expressing the OX2R gene and NFAT-luciferase (CHOOX2R)
T1 sequence (O43614 1-444): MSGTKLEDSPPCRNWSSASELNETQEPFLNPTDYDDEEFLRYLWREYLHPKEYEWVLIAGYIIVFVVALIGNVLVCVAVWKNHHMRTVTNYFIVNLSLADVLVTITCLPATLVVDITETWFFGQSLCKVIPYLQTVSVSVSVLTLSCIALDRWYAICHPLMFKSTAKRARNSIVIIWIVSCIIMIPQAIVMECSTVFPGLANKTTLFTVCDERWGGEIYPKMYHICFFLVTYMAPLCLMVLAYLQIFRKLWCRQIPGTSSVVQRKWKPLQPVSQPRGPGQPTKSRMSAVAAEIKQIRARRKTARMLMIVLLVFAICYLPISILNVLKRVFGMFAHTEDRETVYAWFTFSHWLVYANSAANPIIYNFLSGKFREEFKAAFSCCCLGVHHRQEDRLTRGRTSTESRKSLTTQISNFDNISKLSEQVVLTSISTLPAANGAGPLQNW
Test: Evaluation of agonist activity against OX2R (CHOOX2R cells, Fura2AM fluorescence, FDSS3000)
Type: cell-based
Protocol: Evaluation of Agonist Activity Against OX2R
NFAT-luciferase gene and OX2R gene were each constitutively expressed in CHO cell, which is a cell line derived from Chinese hamster ovary to establish a cell line (CHOOX2R). The cells thereof were sown on a 96 well plate at 10000 cells/well, and cultured in a 5% FBS-added DMEM medium for 48 hr. […] After washing, HEPES buffer (75 μL) was added, a test compound solution (25 μL) was added, and changes in the fluorescence intensity were measured by FDSS3000 (Hamamatsu Photonics K.K.). The test compound was dissolved in DMSO (final concentration of DMSO was 1%), and diluted with HEPES buffer to a final concentration of 0.1 μM, 1.0 μM or 10 μM.

[1] = test compound 0.1 μM; relative to orexin-A as full agonist (100%); CHOOX2R cells
[2] = test compound 1.0 μM; relative to orexin-A as full agonist (100%); CHOOX2R cells
[3] = test compound 10 μM; relative to orexin-A as full agonist (100%); CHOOX2R cells
[4] = test compound 0.1 μM; CHOOX2R cells; relative to orexin-A as full agonist (100%)
[5] = test compound 1.0 μM; CHOOX2R cells; relative to orexin-A as full agonist (100%)
[6] = test compound 10 μM; CHOOX2R cells; relative to orexin-A as full agonist (100%)
[7] = OX2R agonist activity; CHOOX2R cells
[8] = conversion with orexin-A as full agonist (maximum agonist activity 100%)

Response (0.1 μM (%)) [1] [%] | Response (1.0 μM (%)) [2] [%] | Response (10 μM (%)) [3] [%] | Response (0.1 μM (%)) [4] [%] | Response (1.0 μM (%)) [5] [%] | Response (10 μM (%)) [6] [%] | pEC50 [7] | Emax [8] [%] | Structure (SMILES)
<5 | <5 | 6 |  |  |  |  |  | COc1ccc(-c2ccccc2F)cc1S(=O)(=O)Nc1cccc(NCCNC(=O)c2cccnc2)c1 [Example 15, N-(2-((3-(2′-fluoro-4-methoxy-[1,1′-biphenyl]-3-ylsulfonamide)phenyl)amino)ethyl)nicotineamide]
 |  |  | 27 | 92 | 94 |  |  | COc1ccc(-c2cccc(C(=O)N3CCCCC3)c2)cc1S(=O)(=O)Nc1cccc(NCCNC(=O)c2cccc(F)c2)c1 [Example 92, 3-fluoro-N-(2-((3-(4-methoxy-3′-(piperidine-1-carbonyl)-[1,1′-biphenyl]-3-ylsulfonamido)phenyl)amino)ethyl)benzamide]
 |  |  | 75 | 98 | 98 | 6.44 | 85 | COc1ccccc1C(=O)NCCNc1cccc(NS(=O)(=O)c2cc(-c3cccc(C(=O)N4CCC4)c3)ccc2OC)c1 [Example 81, N-(2-((3-(3′-(azetidine-1-carbonyl)-4-methoxy-[1,1′-biphenyl]-3-ylsulfonamido)phenyl)amino)ethyl)-2-methoxybenzamide]
 |  |  | 23 | 144 | 122 |  |  | COc1ccc(-c2cccc(C(=O)N(C)C)c2)cc1S(=O)(=O)Nc1cccc(NCCNC(=O)c2cccc(Cl)n2)c1 [Example 55, 6-chloro-N-(2-((3-(3′-(dimethylcarbamoyl)-4-methoxy-[1,1′-biphenyl]-3-ylsulfonamido)phenyl)amino)ethyl)picolinamide]
<5 | <5 | <5 |  |  |  |  |  | COc1ccccc1C(=O)NCCNc1cccc(NS(=O)(=O)c2cc(-c3cc(Cl)cc(Cl)c3)ccc2OC)c1 [Example 27, N-(2-((3-(3′,5′-dichloro-4-methoxy-[1,1′-biphenyl]-3-ylsulfonamide)phenyl)amino)ethyl)-2-methoxybenzamide]
 |  |  | <5 | 43 | 75 |  |  | COc1ccc(-c2cccc(C(=O)N(C)C)c2)cc1S(=O)(=O)Nc1cccc(NCCNC(=O)c2sccc2C)c1 [Example 60, N-(2-((3-(3′-(dimethylcarbamoyl)-4-methoxy-[1,1′-biphenyl]-3-ylsulfonamido)phenyl)amino)ethyl)-3-methylthiophene-2-carboxamide]
 |  |  | 46 | 89 | 66 | 5.94 | 87 | COc1ccc(-c2cccc(C(=O)N(C)C)c2)cc1S(=O)(=O)Nc1cccc(NCCNC(=O)c2cc(F)ccc2F)c1 [Example 53, 3′-(N-(3-((2-(2,5-difluorobenzamido)ethyl)amino)phenyl)sulfamoyl)-4′-methoxy-N,N-dimethyl-[1,1′-biphenyl]-3-carboxamide]
<5 | 8 | 143 |  |  |  |  |  | COc1ccccc1C(=O)NCCNc1cccc(NS(=O)(=O)c2cc(-c3cc(F)ccc3F)ccc2OC)c1 [Example 19, N-(2-((3-(2′,5′-difluoro-4-methoxy-[1,1′-biphenyl]-3-ylsulfonamide)phenyl)amino)ethyl)-2-methoxybenzamide]
 |  |  | <5 | <5 | 22 |  |  | COc1cccc(-c2ccc(OC)c(S(=O)(=O)Nc3cccc(NCCNC(=O)c4ccccc4OC)c3)c2)n1 [Example 94, 2-methoxy-N-(2-((3-(2-methoxy-5-(6-methoxypyridin-2-yl)phenylsulfonamido)phenyl)amino)ethyl)benzamide]
 |  |  | 13 | 68 | 127 |  |  | COc1cccc(C(=O)NCCNc2cccc(NS(=O)(=O)c3cc(-c4cc(OC)ccc4F)ccc3OC)c2)c1 [Example 35, N-(2-((3-(2′-fluoro-4,5′-dimethoxy-[1,1′-biphenyl]-3-ylsulfonamide)phenyl)amino)ethyl)-3-methoxybenzamide]
10 | 62 | 145 |  |  |  |  |  | COc1ccc(-c2ccccc2F)cc1S(=O)(=O)Nc1cccc(NCCNC(=O)c2ccccc2Cl)c1 [Example 7, 2-chloro-N-(2-((3-(2′-fluoro-4-methoxy-[1,1′-biphenyl]-3-ylsulfonamide)phenyl)amino)ethyl)benzamide]
<5 | 13 | 180 |  |  |  |  |  | COc1cccc(C(=O)NCCNc2cccc(NS(=O)(=O)c3cc(-c4cc(F)ccc4F)ccc3OC)c2)c1 [Example 20, N-(2-((3-(2′,5′-difluoro-4-methoxy-[1,1′-biphenyl]-3-ylsulfonamide)phenyl)amino)ethyl)-3-methoxybenzamide]
<5 | 11 | 50 |  |  |  |  |  | COc1ccc(C(=O)NCCNc2cccc(NS(=O)(=O)c3cc(-c4ccccc4F)ccc3OC)c2)cc1 [Example 3, N-(2-((3-(2′-fluoro-4-methoxy-[1,1′-biphenyl]-3-ylsulfonamide)phenyl)amino)ethyl)-4-methoxybenzamide]
 |  |  | <5 | 12 | 37 |  |  | COc1cncc(-c2ccc(OC)c(S(=O)(=O)Nc3cccc(NCCNC(=O)c4ccccc4OC)c3)c2)c1 [Example 97, 2-methoxy-N-(2-((3-(2-methoxy-5-(5-methoxypyridin-3-yl)phenylsulfonamido)phenyl)amino)ethyl)benzamide]
 |  |  | <5 | 81 | 82 |  |  | COc1ccc(-c2cccc(C(=O)N(C)C)c2)cc1S(=O)(=O)Nc1cccc(NCCNC(=O)c2nccn2C)c1 [Example 63, N-(2-((3-(3′-(dimethylcarbamoyl)-4-methoxy-[1,1′-biphenyl]-3-ylsulfonamido)phenyl)amino)ethyl)-1-methyl-1H-imidazole-2-carboxamide]
 |  |  | <5 | 10 | 71 |  |  | COc1cccc(C(=O)NCCNc2cccc(NS(=O)(=O)c3cc(-c4cccc(C(=O)N5CCC5)c4)ccc3OC)c2)n1 [Example 83, N-(2-((3-(3′-(azetidine-1-carbonyl)-4-methoxy-[1,1′-biphenyl]-3-ylsulfonamido)phenyl)amino)ethyl)-6-methoxypicolinamide]
61 | 83 | 85 |  |  |  |  |  | COc1cc(C)c(-c2cccc(C(=O)N(C)C)c2)cc1S(=O)(=O)Nc1cccc(NCCNC(=O)c2cccc(F)c2)c1 [Example 102, 5′-(N-(3-((2-(3-fluorobenzamido)ethyl)amino)phenyl)sulfamoyl)-4′-methoxy-N,N,2′-trimethyl-[1,1′-biphenyl]-3-carboxamide]
<5 | 17 | 23 |  |  |  |  |  | COc1cccc(C(=O)NCCNc2cccc(NS(=O)(=O)c3cc(-c4ccccc4Cl)ccc3OC)c2)c1 [Example 11, N-(2-((3-(2′-chloro-4-methoxy-[1,1′-biphenyl]-3-ylsulfonamide)phenyl)amino)ethyl)-3-methoxybenzamide]
 |  |  | <5 | <5 | 64 |  |  | COc1ccc(-c2cccc(C(=O)N(C)C)c2)cc1S(=O)(=O)Nc1cccc(NCCNC(=O)c2ccnn2C)c1 [Example 59, N-(2-((3-(3′-(dimethylcarbamoyl)-4-methoxy-[1,1′-biphenyl]-3-ylsulfonamido)phenyl)amino)ethyl)-1-methyl-1H-pyrazole-5-carboxamide]
 |  |  | <5 | 68 | 72 |  |  | COc1ccc(-c2cccc(C(=O)N(C)C)c2)cc1S(=O)(=O)Nc1cccc(NCCNC(=O)c2cn(C)cn2)c1 [Example 64, N-(2-((3-(3′-(dimethylcarbamoyl)-4-methoxy-[1,1′-biphenyl]-3-ylsulfonamido)phenyl)amino)ethyl)-1-methyl-1H-imidazole-4-carboxamide]
 |  |  | 55 | 96 | 76 |  |  | COc1ccc(-c2cccc(C(=O)N(C)C)c2)cc1S(=O)(=O)Nc1cccc(NCCNC(=O)c2ccoc2C)c1 [Example 67, N-(2-((3-(3′-(dimethylcarbamoyl)-4-methoxy-[1,1′-biphenyl]-3-ylsulfonamido)phenyl)amino)ethyl)-2-methylfuran-3-carboxamide]
